From US6455528B1, “Piperazine compounds and medicinal use thereof” (Mitsubishi Pharma Corporation, priority 1997, dated 2002)
Structures can show the parent of a compound that is named as a salt.

Row | Structure (SMILES) | melting point
1 | CC(=O)NCc1ccc(C(C)N2CCN(c3ccccc3)CC2)cc1 (stereo not shown) (as salt: hydrochloride) | 233 to 235 °C (dec.)
2 | CC(=O)NCc1ccc(C(C)(C)N2CCN(c3ccc(F)cc3)CC2)cc1 (as salt: hydrochloride) (hydrate or solvate) | 179 to 181 °C
3 | CC(=O)NC(C)c1ccc(CN2CCN(c3ccccc3)CC2)cc1 (stereo not shown) (as salt: hydrochloride) (hydrate or solvate) [Example 58, N-(1-(4-((4-Phenylpiperazin-1-yl)methyl)phenyl)ethyl)acetamide Dihydrochloride 1/4 Hydrate] | 196 to 200 °C
4 | COc1ccccc1N1CCN(C(C)c2ccc(CNC(C)=O)cc2)CC1 (stereo not shown) (as salt: hydrochloride) [Example 19, N-(4-(1-(4-(2-Methoxyphenyl)piperazin-1-yl)ethyl)phenylmethyl)acetamide Dihydrochloride] | 220 to 223 °C (dec.)
5 | NCc1ccc(CN2CCN(c3ccccc3)CC2)cc1 [Example 2, 4-((4-(Aminomethyl)phenyl)methyl)-1-phenylpiperazine] | 68 to 70 °C
6 | O=CNCc1ccc(CN2CCN(c3ccccc3)CC2)cc1 [Example 3, N-(4-((4-Phenylpiperazin-1-yl)methyl)phenylmethyl)formamide] | 108 to 109 °C
7 | CCC(=O)NCc1ccc(CN2CCN(c3ccccc3)CC2)cc1 [Example 4, N-(4-((4-Phenylpiperazin-1-yl)methyl)phenylmethyl)propionamide] | 140 to 141 °C
8 | CC(=O)NCCc1ccc(CN2CCN(c3ccccc3)CC2)cc1 [Example 14, N-(2-(4-((4-Phenylpiperazin-1-yl)methyl)phenyl)ethyl)acetamide] | 117 to 118 °C
9 | CC(=O)NCc1c(C)cc(CN2CCN(c3ccc(F)cc3)CC2)cc1C [Example 18, N-(4-(4-(4-Fluorophenyl)piperazin-1-ylmethyl)-2,6-dimethylphenylmethyl)acetamide] | 163 to 164 °C
10 | CC(=O)NCc1ccc(CN2CCN(c3ccccc3)CC2)cc1[N+](=O)[O-] [Example 21, N-(2-Nitro-4-((4-phenylpiperazin-1-yl)methyl)phenylmethyl)acetamide] | 135 to 136 °C
11 | CC(=O)NCc1ccc(CN2CCN(c3ccccc3)CC2)cc1N [Example 22, N-(2-Amino-4-((4-phenylpiperazin-1-yl)methyl)phenylmethyl)acetamide] | 148 to 149 °C
12 | CC(=O)NCc1ccc(CN2CCN(c3ccc(F)cc3)CC2)cc1[N+](=O)[O-] [Example 23, N-(4-((4-(4-Fluorophenyl)piperazin-1-yl)methyl)-2-nitrophenylmethyl)acetamide] | 112 to 114 °C
13 | CC(=O)NCc1ccc(CN2CCN(c3ccc(F)cc3)CC2)cc1N [Example 24, N-(2-Amino-4-((4-(4-fluorophenyl)piperazin-1-yl)methyl)phenylmethyl)acetamide] | 163 to 164 °C
14 | CC(=O)NCc1ccc(CN2CCN(c3ccc(F)cc3)CC2)cc1Cl [Example 26, N-(2-Chloro-4-((4-(4-fluorophenyl)-piperazin-1-yl)methyl)phenylmethyl)acetamide] | 141 to 142 °C
15 | CC(=O)NCCc1ccc(CN2CCN(c3ccc(F)cc3)CC2)cc1 [Example 27, N-(2-(4-((4-(4-Fluorophenyl)piperazin-1-yl)methyl)phenyl)ethyl)acetamide] | 121 to 123 °C
16 | CC(=O)NCc1ccc(CN2CCN(c3ccc(F)cc3[N+](=O)[O-])CC2)cc1 [Example 37, N-(4-((4-(4-Fluoro-2-nitrophenyl)-piperazin-1-yl)methyl)phenylmethyl)acetamide] | 94.5 to 96 °C
17 | CC(=O)NCc1ccc(CN2CCN(c3ccc(F)cc3NC(C)=O)CC2)cc1 [Example 39, N-(4-((4-(2-Acetylamino-4-fluorophenyl)piperazin-1-yl)methyl)phenylmethyl)acetamide] | 148 to 149.5 °C
18 | CC(=O)NC(C)c1ccc(CN2CCN(c3ccc(F)cc3F)CC2)cc1 (stereo not shown) [Example 49, N-(1-(4-((4-(2,4-Difluorophenyl)piperazin-1-yl)methyl)phenyl)ethyl)acetamide] | 109 to 111 °C
19 | CC(=O)NC(C)(C)c1ccc(CN2CCN(c3ccccc3)CC2)cc1 [Example 50, N-(1-Methyl-1-(4-((4-phenylpiperazin-1-yl)methyl)phenyl)ethyl)acetamide] | 110 to 111 °C
20 | CCC(NC(C)=O)c1ccc(CN2CCN(c3ccccc3)CC2)cc1 (stereo not shown) [Example 53, N-(1-(4-((4-Phenylpiperazin-1-yl)methyl)phenyl)propyl)acetamide] | 109 to 110.5 °C
21 | CCC(NC(C)=O)c1ccc(CN2CCN(c3ccc(F)cc3)CC2)cc1 (stereo not shown) [Example 54, N-(1-(4-((4-(4-Fluorophenyl)piperazin-1-yl)methyl)phenyl)propyl)acetamide] | 113 to 114 °C
22 | CCC(NC(C)=O)c1ccc(CN2CCN(c3ccc(F)cc3F)CC2)cc1 (stereo not shown) [Example 55, N-(1-(4-((4-(2,4-Difluorophenyl)piperazin-1-yl)methyl)phenyl)propyl)acetamide] | 137 to 138 °C
23 | CCC(CC)(NC(C)=O)c1ccc(CN2CCN(c3ccccc3)CC2)cc1 [Example 56, N-(1-Ethyl-1-(4-((4-phenylpiperazin-1-yl)methyl)phenyl)propyl)acetamide] | 139 to 140 °C
24 | CC(=O)NC1(c2ccc(CN3CCN(c4ccccc4)CC3)cc2)CC1 [Example 57, N-(1-(4-((4-Phenylpiperazin-1-yl)methyl)-phenyl)cyclopropyl)acetamide] | 129 to 139.5 °C
25 | CC(=O)NCc1ccc(C(C)N2CCN(c3ccc(F)cc3)CC2)cc1 (stereo not shown) [Example 59, N-(4-(1-(4-(4-Fluorophenyl)piperazin-1-yl)ethyl)phenylmethyl)acetamide] | 128 to 130 °C
26 | CC(=O)NC(C)(C)c1ccc(C(C)N2CCN(c3ccc(F)cc3)CC2)cc1 (stereo not shown) [Example 60, N-(1-(4-(1-(4-(4-Fluorophenyl)piperazin-1-yl)ethyl)phenyl)-1-methylethyl)acetamide] | 156 to 157 °C
27 | CC(=O)NC(C)(C)c1ccc(C(C)N2CCN(c3ccccc3)CC2)cc1 (stereo not shown) [Example 62, N-(1-(4-(1-(4-Phenylpiperazin-1-yl)ethyl)-phenyl)-1-methylethyl)acetamide] | 169 to 171 °C
28 | CC(=O)NC1(c2ccc(CN3CCN(c4ccc(F)cc4)CC3)cc2)CC1 [Example 65, N-(1-(4-((4-(4-Fluorophenyl)piperazin-1-yl)methyl)phenyl)cyclopropyl)acetamide] | 124 to 126 °C
29 | CC(=O)NC1(c2ccc(CN3CCN(c4ccc(F)cc4F)CC3)cc2)CC1 [Example 66, N-(1-(4-((4-(2,4-Difluorophenyl)-piperazin-1-yl)methyl)phenyl)cyclopropyl)acetamide] | 124 to 125 °C

Other lines, results leading:

Row | melting point | Structure (SMILES)
30 | 231 to 235 °C | CC(=O)NCc1ccc(CN2CCN(c3ccc(F)cc3Br)CC2)cc1 (as salt: hydrochloride)
31 | 115 to 117 °C | CC(=O)NCc1ccc(CN2CCN(c3ccc(F)cc3C)CC2)cc1 (as salt: hydrochloride)
32 | 194 to 195 °C | CC(=O)NCc1ccc(CN2CCN(c3ncccn3)CC2)cc1 (as salt: hydrochloride) (hydrate or solvate) [Example 73, N-(4-((4-(Pyrimidin-2-yl)piperazin-1-yl)methyl)phenylmethyl)acetamide Dihydrochloride Monohydrate]
33 | 120 to 121 °C | CC(=O)NCc1ccc(CN2CCN(c3nccs3)CC2)cc1 (as salt: hydrochloride) (hydrate or solvate) [Example 81, N-(4-((4-(Thiazol-2-yl)piperazin-1-yl)methyl)phenylmethyl)acetamide Hydrochloride 1/2 Hydrate]
34 | 218 to 220 °C | CC(=O)NCc1ccc(CN2CCN(c3ccc(O)cc3)CC2)cc1 (as salt: hydrochloride) [Example 36, N-(4-((4-(4-Hydroxyphenyl)piperazin-1-yl)methyl)phenylmethyl)acetamide Dihydrochloride]
35 | 164 to 166 °C | CC(=O)NCc1ccc(CN2CCN(c3ccc(F)cc3)CC2)cc1 [Example 5, N-(4-((4-(4-fluorophenyl)piperazin-1-yl)methyl)phenylmethyl)acetamide]
36 | 80 to 81 °C | CC(=O)NCc1ccc(CN2CCN(c3cccc(C)c3)CC2)cc1 [Example 9, N-(4-((4-(3-Methylphenyl)piperazin-1-yl)methyl)phenylmethyl)acetamide]
37 | 180.5 to 182 °C | CC(=O)NCc1ccc(CN2CCN(c3ccc(Cl)cc3)CC2)cc1 [Example 11, N-(4-((4-(4-Chlorophenyl)piperazin-1-yl)methyl)phenylmethyl)acetamide]
38 | 137 to 138 °C | COc1ccc(N2CCN(Cc3ccc(CNC(C)=O)cc3)CC2)cc1 [Example 13, N-(4-((4-(4-Methoxyphenyl)piperazin-1-yl)methyl)phenylmethyl)acetamide]
39 | 151.5 to 153.5 °C | CC(=O)NCc1ccc(CN2CCN(c3ccc([N+](=O)[O-])cc3)CC2)cc1 [Example 33, N-(4-((4-(4-Nitrophenyl)piperazin-1-yl)methyl)phenylmethyl)acetamide]
40 | 225 to 226 °C | CC(=O)NCc1ccc(CN2CCN(c3ccc(NC(C)=O)cc3)CC2)cc1 [Example 35, N-(4-((4-(4-Acetamidophenyl)piperazin-1-yl)methyl)phenylmethyl)acetamide]
41 | 139 to 140 °C | CC(=O)NCc1ccc(CN2CCN(c3ccc(F)cc3N)CC2)cc1 [Example 38, N-(4-((4-(2-Amino-4-fluorophenyl)piperazin-1-yl)methyl)phenylmethyl)acetamide]
42 | 108 to 109 °C | CCOc1cc(F)ccc1N1CCN(Cc2ccc(CNC(C)=O)cc2)CC1 [Example 41, N-(4-((4-(2-Ethoxy-4-fluorophenyl)-piperazin-1-yl)methyl)phenylmethyl)acetamide]
43 | 255 to 257 °C | CC(=O)NCc1ccc(CN2CCN(c3ccc(F)cc3Cl)CC2)cc1 [Example 44, N-(4-((4-(2-Chloro-4-fluorophenyl)piperazin-1-yl)methyl)phenylmethyl)acetamide]
